According to US10485236B2, “Triazole derivatives, intermediates thereof and their use as fungicides” (Bayer CropScience Aktiengesellschaft, priority 2015, dated 2019):

The molecules below were run on Septoria tritici (assay: Example L: in vivo preventive Septoria tritici test (wheat)). Settings: Zymoseptoria tritici, 504 h, 500 ppm of active ingredient, preventive spray, evaluated 21 days after inoculation, read-out: efficacy.
Description: Example L: In Vivo Preventive Septoria tritici Test (Wheat) [table] To produce a suitable preparation of active compound, 1 part by weight of active compound or active compound combination is mixed with the stated amounts of solvent and emulsifier, and the concentrate is diluted with water to the desired concentration. To test for preventive activity, young plants are sprayed with the preparation of active compound or active compound combination at the stated rate of application. After the spray coating has been dried, the plants are sprayed with a spore suspension of Septoria tritici. The plants remain for 48 hours in an incubation cabinet at approximately 20° C. and a relative atmospheric humidity of approximately 100% and afterwards for 60 hours at approximately 15° C. in a translucent incubation cabinet at a relative atmospheric humidity of approximately 100%. The plants are placed in the greenhouse at a temperature of approximately 15° C. and a relative atmospheric humidity of approximately 80%. The test is evaluated 21 days after the inoculation. 0% means an efficacy which corresponds to that of the untreated control, while an efficacy of 100% means that no disease is observed.

`OC(Cn1cncn1)c1cnc(Oc2ccc(C(F)(F)F)cc2)cc1C(F)(F)F` (centres unmarked) [I.47] and `OC(Cn1cncn1)c1cnc(Oc2ccc(S(F)(F)(F)(F)F)cc2)cc1C(F)(F)F` (centres unmarked) [I.36] fall in the same range of pest or weed control at 500 ppm: 90 to 100% for the first, 90 to 100% for the second.

`O=C(Cn1cncn1)c1ccc(Oc2ccc(Cl)cc2)nc1C(F)(F)F` [VII.01, 1-[6-(4-chlorophenoxy)-2-(trifluoromethyl)-3-pyridyl]-2-(1,2,4-triazol-1-yl)ethanone] and `OC(Cn1cncn1)c1ccc(Oc2ccc(Cl)cc2)nc1C(F)(F)F` (centres unmarked) [I.03, 1-[6-(4-chlorophenoxy)-2-(trifluoromethyl)-3-pyridyl]-2-(1,2,4-triazol-1-yl)ethanol] fall in the same range of pest or weed control at 500 ppm: 90 to 100% for the first, 90 to 100% for the second.

First: CC(O)(Cn1cncn1)c1ccc(Oc2ccc(Cl)cc2)nc1C(F)(F)F (centres unmarked) [I.01, 2-[6-(4-chlorophenoxy)-2-(trifluoromethyl)-3-pyridyl]-1-(1,2,4-triazol-1-yl)propan-2-ol]
Second: OC(Cn1cncn1)(c1ccc(Oc2ccc(Cl)cc2)nc1C(F)(F)F)C1CC1 (centres unmarked) [I.91, 1-[6-(4-chlorophenoxy)-2-(trifluoromethyl)-3-pyridyl]-1-cyclopropyl-2-(1,2,4-triazol-1-yl)ethanol]
The pest or weed control at 500 ppm of the first is higher: 90 to 100% for the first, 80 to 89% for the second.

`CC(O)(Cn1cncn1)c1cnc(Oc2ccc(Cl)cc2)cc1C(F)(F)F` (centres unmarked) [I.02, 2-[6-(4-chlorophenoxy)-4-(trifluoromethyl)-3-pyridyl]-1-(1,2,4-triazol-1-yl)propan-2-ol] and `C[C@@](O)(Cn1cncn1)c1cnc(Oc2ccc(Cl)cc2)cc1C(F)(F)F` [I.45] fall in the same range of pest or weed control at 500 ppm: 90 to 100% for the first, 90 to 100% for the second.

First: CC(O)(Cn1cncn1)c1ccc(Oc2ccc(C(F)F)cc2)nc1Cl (centres unmarked) [I.39]
Second: CC(O)(Cn1cncn1)c1ccc(Oc2ccc(S(F)(F)(F)(F)F)cc2)nc1Cl (centres unmarked) [I.35]
The pest or weed control at 500 ppm of the first is lower: 70 to 79% for the first, 90 to 100% for the second.

`CC(O)(Cn1cncn1)c1cnc(Oc2ccccc2)cc1Cl` (centres unmarked) [I.05] showed a pest or weed control at 500 ppm of 90 to 100%.
